Laboratory results reported in a melting point compilation (Tetko et al.; mined from patent text by program, amines drawn as free bases though some values may be those of a salt).

`O=C(NC(Cc1ccccc1)c1ccc(O)cc1)C(c1ccccc1)c1ccccc1` (stereo unspecified) showed a melting point of 67 to 69 °C.
Compound `Cc1c(C(=O)OCc2ccccc2)sc(NC(=O)c2ccccc2)c1C(=O)OC(C)(C)C` has a melting point of 134 to 135 °C.
Compound `c1cnc2ccc(Cn3nnc4ccc(-c5ccc6c(c5)OCO6)nc43)cc2c1` has a melting point of 179 to 181 °C.
`CN(C)N1C2=NCCN2C(=O)c2ccccc21` showed a melting point of 197 to 198 °C.
In the case of `CC(=O)OC1CSC(Oc2cc(C)c(Cl)cc2-c2ccno2)C(OC(C)=O)C1OC(C)=O` (stereo unspecified), the melting point is reported as 203 °C.
Compound `c1ccc(CN2c3ccccc3-c3noc4c3C2CCC4)cc1` (stereo unspecified) has a melting point of 162 to 164 °C.
For `COC(=O)Cc1ccccc1OCc1cc(OCCc2nc(-c3ccccc3)sc2C)no1`, the melting point was 80 to 81 °C.
Compound `CCc1c(CO)c(CO)c2n1-c1ccccc1C2` has a melting point of 131 to 133 °C.
Work on `CNc1n[nH]c(=S)n1C` yielded a melting point of 213 °C.
For `COC(=O)C1(n2c(=O)[nH]c3ccccc3c2=O)CCCCC1`, the melting point was 145 to 147 °C.
Work on `CCOC(=O)C1=C(C(F)(F)F)Nc2n[nH]cc2C1c1ccc(OC)cc1` (stereo unspecified) yielded a melting point of 159 to 161 °C.
In the case of `Cc1cc(CCCOc2c(C)cc(-c3noc(=O)[nH]3)cc2C)on1`, the melting point is reported as 194 to 195 °C.
With `CCOC(=O)NC1N=C(c2ccccc2)c2ccccc2-n2c(C)nnc21` (stereo unspecified) the melting point was 198 to 202 °C.
`COC(=O)c1ccc(Oc2c(-c3ccc(OCc4ccccc4)cc3)c(C(F)(F)F)cc3ccccc23)cc1` gave a melting point of 131 to 132 °C.
With `CC=Cc1cc(OC)c(OC)cc1Cc1cnc(N)nc1N` the melting point was 204 to 208 °C.
With `CCCCc1oc2ccccc2c1C(=O)Nc1ccc2cc(OCC#N)ccc2c1` the melting point was 122 to 124 °C.
`CC(C)c1n[nH]c2c(Nc3cccc(Cl)c3)nc(Cl)nc12` gave a melting point of 257 to 259 °C.
`CN(C)C=CC(=O)c1cccc(C(F)(F)F)c1` gave a melting point of 60.5 to 62 °C.
Work on `CCCCOc1cc2c3c(ccc4c5ccc6c7c(cc(OCCCC)c(c1c34)c75)-c1ccccc1C6=O)C(=O)c1ccccc1-2` yielded a melting point of 275 to 280 °C.
Work on `O=C1CC(c2ccccc2)Cc2nccc(Cl)c21` (stereo unspecified) yielded a melting point of 71 to 72 °C.
Work on `O=C(O)c1c[nH]c(Sc2cccc(Cl)c2)c1` yielded a melting point of 134 to 137 °C.
`CCOC(=O)c1c(CC)ncnc1NCCc1ccc(CCOS(C)(=O)=O)cc1` showed a melting point of 84 to 86 °C.
`CCCONC(=O)c1cc(OC)cc(Oc2cccc(C(F)(F)F)c2)n1` gave a melting point of 75 to 77 °C.
For `CC(c1cc(F)ccc1O)c1cc(Cl)cc(C(C)c2cc(F)ccc2O)c1O` (stereo unspecified), the melting point was 224 °C.
`O=C(Nc1ccc(C(F)(F)F)cc1)C1=NN(c2ccccc2)CC1c1ccc(F)cc1` (stereo unspecified) showed a melting point of 184 °C.
`O=C(O)Cc1ccc(CNC(=O)C2Cc3ccccc3N2S(=O)(=O)c2ccc(-c3cccc(C(F)(F)F)c3)cc2)c(F)c1` (stereo unspecified) showed a melting point of 99 to 105 °C.
`COc1nc2sccc2c2nc(S(=O)(=O)Nc3c(Cl)cccc3Cl)nn12` gave a melting point of 224 to 226 °C.
Compound `Nc1c(Cl)cc(C(O)CNCCCCCC(=O)OCCc2ccsc2)cc1Cl` (stereo unspecified) has a melting point of 71 to 73 °C.
For `Cc1cc(-c2noc(C(F)(F)F)n2)cc(C)c1OCCCc1cncs1`, the melting point was 95 to 97 °C.
For `Clc1ccc2c(c1)C(NC1=NCCS1)CCC2` (stereo unspecified), the melting point was 164 to 166 °C.
`CCOC(=O)C=CC=Cc1ccc(OC)c(C)c1C` gave a melting point of 92 to 95 °C.
In the case of `COc1ccc2c(n1)C1(CO2)C(=O)N(Cc2ncccc2C(F)(F)F)c2ccccc21` (stereo unspecified), the melting point is reported as 195 to 198 °C.
With `FC(F)(F)c1ccc(-c2cc(C(F)(F)F)n3ncc(C#Cc4cncnc4)c3n2)cc1` the melting point was 175 °C.
With `Cc1cccc2c1nc(-c1c(F)cccc1F)n2Cc1cccnc1` the melting point was 131 to 132 °C.
For `CC1(C)C(=O)Oc2c(S(C)(=O)=O)cc3cc(S(C)(=O)=O)c(Cn4cncn4)cc3c21`, the melting point was 263 to 264 °C.
In the case of `NS(=O)(=O)c1cccc2c1CC(=O)CC2`, the melting point is reported as 173 to 175 °C.
In the case of `CN1CCCC(C2=C(C#N)C(c3cccc(C#N)c3Br)c3c[nH]nc3N2)C1` (stereo unspecified), the melting point is reported as 174 °C.
`CCN1CCCNC1=C[N+](=O)[O-]` gave a melting point of 126 to 127 °C.
In the case of `CN(CC(=O)O)C(=O)CCSC(=O)c1ccccc1`, the melting point is reported as 139 to 140 °C.
`O=C(O)C12CC(c3ccccc31)c1ccccc12` showed a melting point of 200 °C.
With `O=C(NCCO)c1cc(-c2cccc3cc(Cc4cccc(C(F)(F)F)c4)sc23)ncn1` the melting point was 46 to 47 °C.
`C#CC12CC3CC(C#C)(C1)CC(C#C)(C3)C2` gave a melting point of 84 to 86 °C.
With `O=[N+]([O-])c1ccc(NS(=O)(=O)c2ccc(Cl)c(Cl)c2)c(Cl)c1` the melting point was 199 to 201 °C.
`Cc1cc(O)c(F)cc1Br` showed a melting point of 44 to 46 °C.
With `COc1c(C)c2c(c(N)c1C/C=C(\C)CCC(=O)O)C(=O)OC2` the melting point was 130 to 131 °C.
`CCCCC(=O)Cc1ccc(C(=O)Nc2ccc3cc(CN4CCCC4)cnc3c2C)cc1` showed a melting point of 156 °C.
Work on `CS(=O)(=O)OCCCCCCNC(=O)CNC(=O)OCc1ccccc1` yielded a melting point of 82 to 83 °C.
In the case of `CCOC(=O)C(Cc1ccc(O)cc1)c1cc2cc(C#N)ccc2s1` (stereo unspecified), the melting point is reported as 146 to 147 °C.
In the case of `CCCCNC(=N)OC(=N)N(CCCC)c1cccc(-c2ccnc3c(C(=O)c4cccs4)cnn23)c1`, the melting point is reported as 180 to 181 °C.
`Cc1ccc(O)c(C(C)(C)CC(C)(C)C)c1` showed a melting point of 42 to 45 °C.
For `CCCc1c[nH]nc1OCCCc1cn(-c2ccc(C(F)(F)F)cn2)nc1CCC`, the melting point was 127 to 128 °C.
`C#CC(C)(O)C1CCC2C3CCC4CC(F)CCC4(C)C3CCC21C` (stereo unspecified) gave a melting point of 230 to 231 °C.
In the case of `N#CCCc1cccc(-c2ccc3cnc(Nc4ccc5c(c4)CCC(N4CCOCC4)CC5)nn23)c1` (stereo unspecified), the melting point is reported as 184 to 186 °C.
Work on `CC(C)(C)OC(=O)c1ncn2c1[C@@H]1CCCN1C(=O)c1c-2cccc1S(C)(=O)=O` yielded a melting point of 244 °C.
For `CCOC(=O)c1csc(NC(=O)C(CC2CCCC2)c2ccc(NC(=O)c3cccnc3)cc2)n1` (stereo unspecified), the melting point was 222 to 223 °C.
With `CC(C)NN=C(N)Nc1c(Cl)cccc1Cl` the melting point was 227 to 228 °C.
With `O=C(O)COc1ccc(-c2cc(O)c(Sc3ccccc3)c(=O)o2)cc1` the melting point was 186 to 188 °C.
Compound `CC(=O)NNc1ccc([N+](=O)[O-])cc1` has a melting point of 207 to 209 °C.
With `C=C(C(=O)OC1CC2CCC(C1)N2C(C)=O)c1ccccc1` (stereo unspecified) the melting point was 104 to 107 °C.
Work on `Clc1ccc(-c2nc3cccnc3n2Cc2ccccn2)cc1` yielded a melting point of 144 to 146 °C.
Work on `Cn1c(=O)c2c(nc(Cl)n2Cc2ccccc2)n(C)c1=O` yielded a melting point of 146 to 147 °C.
Compound `COc1ccc([C@@H]2Sc3cc(C)c(C)cc3N(CCN(C)C)C(=O)[C@@H]2O)cc1` has a melting point of 117 to 118 °C.
`O=C(O)c1ccc(CCNc2c(C(=O)O)cc(Cl)cc2[N+](=O)[O-])cc1` gave a melting point of 255 to 257 °C.
In the case of `CCOC(=O)C(C#N)=Cc1ccc(NC(C)=O)cc1`, the melting point is reported as 187 °C.
`COc1ccccc1OC1CCN(c2nc(-c3ccccc3)nc3ccccc23)C1` (stereo unspecified) gave a melting point of 142 to 144 °C.
Work on `CCc1cnc2c(c1)C=Cc1cccnc1N2` yielded a melting point of 95 to 97 °C.
`FC(F)(F)c1cnc(-c2ccc(Cl)c(CBr)c2)c(Cl)c1` showed a melting point of 71 to 72 °C.
`COCC(=O)N1c2ccc(N3C[C@H](CNC(C)=O)OC3=O)cc2C[C@H]1C` gave a melting point of 174 to 175 °C.
Compound `O=Cc1cccnc1Nc1ccccc1F` has a melting point of 94 °C.
`OCC1OC(Oc2ccsc2Cc2ccc(OC(F)(F)F)cc2)C(O)C(O)C1O` (stereo unspecified) gave a melting point of 144 to 145 °C.
Compound `COC(=O)c1cccc(Cn2c(=O)c(=O)[nH]c3cc([N+](=O)[O-])ccc32)c1` has a melting point of 265 to 267 °C.
`O=C(NCc1ccncc1)Nc1cccc2ccccc12` showed a melting point of 178 °C.
For `CC(NC(=O)OCc1ccccc1)NC(=O)C1C(C)(C)CCC1(C)C` (stereo unspecified), the melting point was 146 °C.
`COc1cc2nc(N3CCNCC3)nc(N)c2cc1OC` showed a melting point of 224 to 228 °C.
Work on `CCN1C(=O)CCC(C)(C)c2ccc(Nc3ncc(Cl)c(Nc4c(F)cccc4OCC#N)n3)cc21` yielded a melting point of 235 to 238 °C.
For `COc1ccc2[nH]cc(CC3=CCCN(CCCC(=NO)c4ccc(F)cc4)C3)c2c1`, the melting point was 129 to 130 °C.
For `CCOC(=O)c1cn(-c2ccc(OC)cc2)c(-c2ccc(OC)cc2)n1`, the melting point was 142 to 143 °C.
For `Cc1nn(CC(F)CO)c(-c2ccc(F)cc2)c1-c1ccc2c(c1)NC(=O)CO2` (stereo unspecified), the melting point was 193 to 196 °C.
With `CC(C)(C)OC(=O)NC(C(=O)O)c1c[nH]c2ccccc12` (stereo unspecified) the melting point was 144 °C.
Work on `COc1cc(CC2(Cc3ccnc(OC)c3)c3ccccc3-c3ncccc32)ccn1` yielded a melting point of 138 to 140 °C.
In the case of `COc1ccc(CN(C)CCCSc2ccc(NC(=O)c3cccc4c(=O)c5cccc(OC)c5[nH]c34)cc2)cc1OC`, the melting point is reported as 184 to 186 °C.
Work on `Cc1nc(Cl)c([N+](=O)[O-])c(Cl)n1` yielded a melting point of 42 to 44 °C.
In the case of `CC1=C(c2ccccc2)C(=O)N(C(C)(C)c2cccc(Cl)c2)CC1`, the melting point is reported as 117 to 118 °C.
`COc1ccc(C(O)Cc2c(Cl)cccc2Cl)cc1OC1CCCC1` (stereo unspecified) showed a melting point of 87 to 89 °C.
Compound `CCOc1ccc([N+](=O)[O-])cn1` has a melting point of 85 to 88 °C.
`Cn1c(=O)[nH]c2nc3ccc(OCCCC(=O)O)cc3cc21` gave a melting point of 286 to 288 °C.
In the case of `Cc1cc(=O)oc2cc(OS(N)(=O)=O)ccc12`, the melting point is reported as 161 to 164 °C.
For `Clc1c(Cl)c(Cl)c2[nH]c(NC3=NCCN3)nc2c1Cl`, the melting point was 310 °C.
`Nc1nc(C#Cc2ccccc2)nc2nc(-c3ccco3)nn12` showed a melting point of over 280 °C.
With `CC(CCCC(C)(C)O)C1CCC2C3=CC=C4CCCC(O)C4(C)C3CCC21C` (stereo unspecified) the melting point was 151 to 152 °C.
In the case of `CC(=O)SCCC(=O)N1c2ccccc2C(C)(C)C1C(N)=O` (stereo unspecified), the melting point is reported as 156 to 158 °C.
Compound `COc1ccc(CCc2oc3ccc(C#N)cc3c2C(=O)O)cc1` has a melting point of 205 to 208 °C.
`CCCc1c(O)c(O)c(C(=O)O)c2ccc(C)cc12` showed a melting point of 159 to 160 °C.
With `CS(=O)(=O)c1ccc(-c2cc(C(F)(F)F)cnc2C(=O)c2ccccc2)cc1` the melting point was 141 to 142 °C.
`CC(C)n1nc(C#C[Si](C)(C)C)ccc1=O` showed a melting point of 61 to 62.5 °C.
Compound `CN(C)C1CC2c3ccccc3Cc3ccccc3N2C1` (stereo unspecified) has a melting point of 124 to 128 °C.
Compound `COC(=O)CC(C#Cc1cccc(-c2nc(C)no2)c1)c1ccc(OC)c(OC2CCCC2)c1` (racemic) has a melting point of 66 to 68.5 °C.
`NC(=O)NC1CCC(c2ccccc2-n2nc(C(F)(F)F)cc2C(F)(F)F)CC1` (stereo unspecified) showed a melting point of 185 to 188 °C.
`CN(C)CCCOc1ccc(-c2nnc(CSCCOc3ccccc3)s2)cc1` showed a melting point of 72 to 73 °C.
Work on `COCC1CCN(c2ccc(C#N)c3ccccc23)CC1` yielded a melting point of 96 to 97 °C.
Compound `CCCC(C)CC(C)(C)NC(=O)CN1C(=O)c2ccccc2C1=O` (stereo unspecified) has a melting point of 132 °C.
